The results in this text go back to patent US7517874B2 (priority 2007, dated 2009).

Where two headings read alike, the source gives them in different places. Bounds are passed on as bounds.

Assay [1] concerns the target human CB1 receptor (hCB1) (Homo sapiens, UniProt P21554). Kind of assay: cell-based. It counts as cell-based. The following applies: for +/− HCB1: agonist or inverse agonist at hCB1. In short, it runs like this:
(§1)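 Agonism or inverse agonism was assessed as change in intracellular cAMP in CHO-K1 cells expressing human CB1 or rat CB2 (genomic DNA, pcDNA3.1).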

The target in a further assay is T1, rat CB2 receptor (rCB2) (Rattus norvegicus, UniProt Q9QZN9).
T1 sequence (Q9QZN9 1-360): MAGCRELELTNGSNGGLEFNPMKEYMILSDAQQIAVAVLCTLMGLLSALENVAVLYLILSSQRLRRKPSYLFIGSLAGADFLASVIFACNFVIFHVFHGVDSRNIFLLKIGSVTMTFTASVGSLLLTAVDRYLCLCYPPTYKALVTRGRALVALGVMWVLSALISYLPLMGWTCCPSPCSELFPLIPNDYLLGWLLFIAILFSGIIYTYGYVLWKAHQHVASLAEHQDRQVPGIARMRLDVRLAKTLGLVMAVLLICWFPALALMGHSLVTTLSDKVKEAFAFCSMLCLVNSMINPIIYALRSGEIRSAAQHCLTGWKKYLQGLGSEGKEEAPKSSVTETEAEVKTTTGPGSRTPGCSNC
Nature of the assay: cell-based. It counts as cell-based. To be noted: for +/− RCB2: agonist or inverse agonist at rCB2. In short, it runs like this:
as §1

Setting [2] is: groups >100 nM-10 μM and >10 μM, cAMP, CHO-K1 hCB1, read-out: EC50 HCB1.

human CB1 receptor (hCB1), sequence (P21554 whole entry): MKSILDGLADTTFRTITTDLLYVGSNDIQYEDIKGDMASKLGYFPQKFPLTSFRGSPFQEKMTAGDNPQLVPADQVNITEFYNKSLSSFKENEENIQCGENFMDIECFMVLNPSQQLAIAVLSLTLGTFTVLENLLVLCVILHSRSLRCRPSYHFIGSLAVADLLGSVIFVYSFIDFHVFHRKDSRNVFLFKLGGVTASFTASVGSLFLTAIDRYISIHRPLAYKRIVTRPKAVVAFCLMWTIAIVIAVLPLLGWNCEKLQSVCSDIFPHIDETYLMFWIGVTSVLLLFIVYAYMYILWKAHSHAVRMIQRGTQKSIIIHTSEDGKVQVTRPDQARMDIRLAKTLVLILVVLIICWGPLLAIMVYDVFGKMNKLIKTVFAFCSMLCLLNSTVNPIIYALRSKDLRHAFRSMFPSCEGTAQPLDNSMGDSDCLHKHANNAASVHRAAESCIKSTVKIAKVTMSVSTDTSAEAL

Turning to `CNC(=O)[C@@H](NC(=O)c1nc(-c2ccc(F)cc2Cl)n2c1CN(C)CCC2)C(C)(C)C` [Compound 337, (S)-3-(2-chloro-4-fluorophenyl)-N-(3,3-dimethyl-1-(methylamino)-1-oxobutan-2-yl)-8-methyl-6,7,8,9-tetrahydro-5H-imidazo[1,5-a][1,4]diazepine-1-carboxamide], the EC50 (commonly the concentration needed to bring the measured effect to its halfway point) in assay [1] is over 10000 nM. Besides, the “+/− RCB2” value on rat CB2 receptor (rCB2) was “+”.
The like results for `CNC(=O)[C@@H](NC(=O)c1nc(-c2ccccc2C(F)(F)F)n2c1CN(C)CCC2)C(C)(C)C` [Compound 399, (S)-N-(3,3-dimethyl-1-(methylamino)-1-oxobutan-2-yl)-8-methyl-3-(2-(trifluoromethyl)phenyl)-6,7,8,9-tetrahydro-5H-imidazo[1,5-a][1,4]diazepine-1-carboxamide] were, in that order, over 10000 nM and “+”.
For `CNC(=O)[C@@H](NC(=O)c1nc(-c2cccc(C(=O)N3CCOCC3)c2)n2c1CN(C)CCC2)C(C)(C)C` [Compound 386, (S)-N-(3,3-dimethyl-1-(methylamino)-1-oxobutan-2-yl)-8-methyl-3-(3-(morpholine-4-carbonyl)phenyl)-6,7,8,9-tetrahydro-5H-imidazo[1,5-a][1,4]diazepine-1-carboxamide], the 50% effective concentration (EC50) is over 10000 nM in assay [1] and over 10 µM at rat CB2 receptor (rCB2).
Consider `CNC(=O)[C@@H](NC(=O)c1nc(-c2cccc(F)c2)n2c1CN(C)CCC2)C(C)(C)C` [Compound 345, (S)-N-(3,3-dimethyl-1-(methylamino)-1-oxobutan-2-yl)-3-(3-fluorophenyl)-8-methyl-6,7,8,9-tetrahydro-5H-imidazo[1,5-a][1,4]diazepine-1-carboxamide], for which, in assay [1], the EC50 is over 10000 nM. Also, on rat CB2 receptor (rCB2), the “+/− RCB2” value is on record as “+”.
The like results for `CCCCCCc1nc(C(=O)N[C@H](C(=O)NC)C(C)(C)C)c2n1CCCN(C)C2` [Compound 491, (S)-N-(3,3-dimethyl-1-(methylamino)-1-oxobutan-2-yl)-3-hexyl-8-methyl-6,7,8,9-tetrahydro-5H-imidazo[1,5-a][1,4]diazepine-1-carboxamide] were, in that order, over 10000 nM and “+”.
Regarding `COC(=O)[C@@H](NC(=O)c1nc(-c2ccccc2)n2c1CN(C)CCC2)C(C)(C)C` [Compound 467, (S)-methyl 3,3-dimethyl-2-(8-methyl-3-phenyl-6,7,8,9-tetrahydro-5H-imidazo[1,5-a][1,4]diazepine-1-carboxamido)butanoate], the EC50 in assay [1] is over 10000 nM. Further, the “+/− RCB2” value at rat CB2 receptor (rCB2) was “+”.
On to `CC(C)CCNC(=O)c1nc(-c2ccc(Cl)cc2)n2c1CN(C(=O)OC(C)(C)C)CC2` [Compound 33, tert-butyl 3-(4-chlorophenyl)-1-(isopentylcarbamoyl)-5,6-dihydroimidazo[1,5-a]pyrazine-7(8H)-carboxylate], for which the EC50 in assay [1] (setting [2]) is over 10000 nM. The “+/− RCB2” value on rat CB2 receptor (rCB2) is “−”.
As for `C=C(c1nc(C(=O)N[C@H](C(=O)NC)C(C)(C)C)c2n1CCCN(C)C2)C(F)(F)F` [Compound 453, (S)-N-(3,3-dimethyl-1-(methylamino)-1-oxobutan-2-yl)-8-methyl-3-(3,3,3-trifluoroprop-1-en-2-yl)-6,7,8,9-tetrahydro-5H-imidazo[1,5-a][1,4]diazepine-1-carboxamide], the EC50 in assay [1] is over 10000 nM. The “+/− RCB2” value at rat CB2 receptor (rCB2) is listed as “+”.
In the case of `CN1CCn2c(-c3ccccc3)nc(C(=O)N[C@H](CO)C(C)(C)C)c2C1` [Compound 59, (S)-N-(1-hydroxy-3,3-dimethylbutan-2-yl)-7-methyl-3-phenyl-5,6,7,8-tetrahydroimidazo[1,5-a]pyrazine-1-carboxamide], the EC50 in assay [1] is over 10000 nM; at rat CB2 receptor (rCB2), over 10 µM.
Regarding `Cc1noc([C@@H](NC(=O)c2nc(-c3ccccc3)n3c2CN(C)CC3)C(C)(C)C)n1` [Compound 87, (S)-N-(2,2-dimethyl-1-(3-methyl-1,2,4-oxadiazol-5-yl)propyl)-7-methyl-3-phenyl-5,6,7,8-tetrahydroimidazo[1,5-a]pyrazine-1-carboxamide], the EC50 in assay [1] is over 10000 nM. For the same molecule, the “+/− RCB2” value on rat CB2 receptor (rCB2) is “−”.
On to `CNC(=O)[C@@H](NC(=O)c1nc(C2=CCCC2)n2c1CN(C)CC2)C(C)(C)C` [Compound 238, (S)-3-cyclopentenyl-N-(3,3-dimethyl-1-(methylamino)-1-oxobutan-2-yl)-7-methyl-5,6,7,8-tetrahydroimidazo[1,5-a]pyrazine-1-carboxamide], for which the “+/− HCB1” value in assay [1] is “+”. Further, the EC50 at rat CB2 receptor (rCB2) was over 10 µM.
Consider `CNC(=O)[C@@H](NC(=O)c1nc(C2CCC(C)CC2)n2c1CN(C)CCC2)C(C)(C)C` (stereo partly drawn) [Compound 499, (S)-N-(3,3-dimethyl-1-(methylamino)-1-oxobutan-2-yl)-8-methyl-3-(4-methylcyclohexyl)-6,7,8,9-tetrahydro-5H-imidazo[1,5-a][1,4]diazepine-1-carboxamide], for which the EC50 in assay [1] was over 10000 nM. Also, the “+/− RCB2” value on rat CB2 receptor (rCB2) is recorded as “+”.
For `CC(=O)N1CCn2c(-c3ccccc3)nc(C(=O)N[C@@H](C)c3ccccc3)c2C1` [Compound 172, (S)-7-acetyl-3-phenyl-N-(1-phenylethyl)-5,6,7,8-tetrahydroimidazo[1,5-a]pyrazine-1-carboxamide], the EC50 in assay [1] is over 10000 nM. Besides, the “+/− RCB2” value on rat CB2 receptor (rCB2) is listed as “+”.
Regarding `CNC(=O)[C@H](CC(C)(C)C)NC(=O)c1nc(-c2ccc(F)c(F)c2)n2c1CN(C)CCC2` [Compound 552, (S)-3-(3,4-diflurophenyl)-N-(4,4-dimethyl-1-(methylamino)-1-oxopentan-2-yl)-8-methyl-6,7,8,9-tetrahydro-5H-imidazo[1,5-a][1,4]diazepine-1-carboxamide], the “+/− HCB1” value in assay [1] was “+”. Further, the “+/− RCB2” value at rat CB2 receptor (rCB2) is on record as “+”.
Take `CNC(=O)[C@@H](NC(=O)c1nc(CCCN2CCCCC2)n2c1CN(C)CCC2)C(C)(C)C` [Compound 501, (S)-N-(3,3-dimethyl-1-(methylamino)-1-oxobutan-2-yl)-8-methyl-3-(3-(piperidin-1-yl)propyl)-6,7,8,9-tetrahydro-5H-imidazo[1,5-a][1,4]diazepine-1-carboxamide]: in assay [1], the EC50 is over 10000 nM. The “+/− RCB2” value at rat CB2 receptor (rCB2) is given as “+”.
In assay [1], `CC(C)(C)[C@@H](CO)NC(=O)c1nc(-c2ccccc2)n2c1CN(S(=O)(=O)c1ccc(F)cc1)CC2` [Compound 101, (S)-7-(4-fluorophenylsulfonyl)-N-(1-hydroxy-3,3-dimethylbutan-2-yl)-3-phenyl-5,6,7,8-tetrahydroimidazo[1,5-a]pyrazine-1-carboxamide] returned an EC50 of over 10000 nM. Besides, at rat CB2 receptor (rCB2), the “+/− RCB2” value is “−”.
The like results for `CNC(=O)[C@@H](NC(=O)c1nc(C2=CCC(C)CC2)n2c1CN(C)CC2)C(C)(C)C` (stereo partly drawn) [Compound 270, N-((S)-3,3-dimethyl-1-(methylamino)-1-oxobutan-2-yl)-7-methyl-3-(4-methylcyclohex-1-enyl)-5,6,7,8-tetrahydroimidazo[1,5-a]pyrazine-1-carboxamide] were, in that order, over 10000 nM and “−”.
As for `CNC(=O)[C@@H](NC(=O)c1nc(-c2cc(C)ccc2Cl)n2c1CN(C)CCC2)C(C)(C)C` [Compound 335, (S)-3-(2-chloro-5-methylphenyl)-N-(3,3-dimethyl-1-(methylamino)-1-oxobutan-2-yl)-8-methyl-6,7,8,9-tetrahydro-5H-imidazo[1,5-a][1,4]diazepine-1-carboxamide], the EC50 in assay [1] was over 10000 nM; on rat CB2 receptor (rCB2), over 10 µM.
Turning to `C[C@H](NC(=O)c1nc(-c2ccccc2)n2c1CN(C(=O)OC(C)(C)C)CC2)c1ccccc1` [Compound 31, (S)-tert-butyl 3-phenyl-1-(1-phenylethylcarbamoyl)-5,6-dihydroimidazo[1,5-a]pyrazine-7(8H)-carboxylate], the EC50 in assay [1] (setting [2]) is over 10000 nM. In addition, the “+/− RCB2” value at rat CB2 receptor (rCB2) is given as “−”.
`CNC(=O)[C@@H](NC(=O)c1nc(-c2cccc(Cl)c2)n2c1CNCC2)C(C)(C)C` [Compound 18, (S)-3-(3-chlorophenyl)-N-(3,3-dimethyl-1-(methylamino)-1-oxobutan-2-yl)-5,6,7,8-tetrahydroimidazo[1,5-a]pyrazine-1-carboxamide] registered an EC50 in assay [1] of over 10000 nM. In addition, the “+/− RCB2” value on rat CB2 receptor (rCB2) is given as “−”.
In assay [1], `CCS(=O)(=O)N1CCn2c(-c3ccccc3)nc(C(=O)NC3CCCCC3)c2C1` [Compound 118, N-cyclohexyl-7-(ethylsulfonyl)-3-phenyl-5,6,7,8-tetrahydroimidazo[1,5-a]pyrazine-1-carboxamide] yielded an EC50 of over 10000 nM. At rat CB2 receptor (rCB2), the “+/− RCB2” value was “−”.
The molecule `CNC(=O)[C@@H](NC(=O)c1nc(/C=C/COC)n2c1CN(C)CC2)C(C)(C)C` [Compound 264, (S,E)-N-(3,3-dimethyl-1-(methylamino)-1-oxobutan-2-yl)-3-(3-methoxyprop-1-enyl)-7-methyl-5,6,7,8-tetrahydroimidazo[1,5-a]pyrazine-1-carboxamide] yielded an EC50 in assay [1] of over 10000 nM. In addition, the “+/− RCB2” value on rat CB2 receptor (rCB2) was “+”.
The like results for `C=Cc1nc(C(=O)N[C@H](C(=O)NC)C(C)(C)C)c2n1CCCN(C)C2` [Compound 430, (S)-N-(3,3-dimethyl-1-(methylamino)-1-oxobutan-2-yl)-8-methyl-3-vinyl-6,7,8,9-tetrahydro-5H-imidazo[1,5-a][1,4]diazepine-1-carboxamide] were, in that order, over 10000 nM and “+”.
